This assay deals with M109 tumor cells. The assay can be described thus: M109 solid tumor assay, five injections every two days (compared with neocarzinostatin and esperamicin A1). The settings on record: for T/C value: reference compounds, dose not given; for lifespan and tumor growth delay (in words): standard compounds, solid tumor. Type of assay: in vivo, female mice. The protocol:
This assay involves development of a solid tumor in a mouse by injection of M109 tumor cells under the skin of the animal. Solid tumors, typically elliptical in shape, rapidly develop on the flank of the mouse at the site of injection. Progress of the tumor is determined by its size which is measured across each axis of the elongated mass. Straightforward computations of tumor volume combined with an assumed density of 1 g per cc yields a weight estimate which is accepted as an indication of the progress of tumor growth. Increase in lifespan (T/C values) of the animal and delay in tumor growth (T-C) to reach a predetermined size (typically measured as weight of the tumor) are generally accepted by those of skill in the art as endpoint parameters. […] In the particular M109 assay described and used to test the novel dynemicin analogs, the median time to establish a baseline tumor burden (arbitrarily set at 1 g tumor) was 4 days.
A standard M109 solid tumor assay was set up to compare compound 5582 and 4229 with neocarzinostatin and esperamicin A1. Female mice were injected subcutaneously with 0.1 mL of a 0.2% brei of M109 tumor cells, prepared from 2 g tumor per 100 mL PBS (phosphate buffered saline).
In another test, compounds 5582 and 4229 were evaluated in mice implanted with M109 on a 5 injection per day every two days schedule beginning on day 1 post implant and compared with SC tumored mice.

As to esperamicin A1, the T/C value was found to be 11 days; the “lifespan and tumor growth delay (in words)” value was “increased lifespan and delay in tumor growth”.

B1: neocarzinostatin: clinically tested compound; positive reference compound (protein, UniProt P0A3R9 35-147, looked up)
Neocarzinostatin: AAPTATVTPSSGLSDGTVVKVAGAGLQAGTAYDVGQCAWVDTGVLACNPADFSSVTADANGSASTSLTVRRSFEGFLFDGTRWGTVDCTTAACQVGLSDAAGNGPEGVAISFN
modifications: enediyne chromophore
B1: the T/C value is recorded as 19.3 days; the “lifespan and tumor growth delay (in words)” value was “increased lifespan and delay in tumor growth”.

These data come from US5442065A, “Synthesis of tetrahydroquinoline enediyne core analogs of dynemicin” (Board of Regents, The University of Texas System, priority 1993, dated 1995).
